Data reported in patent US20110039762A1, “TARGETED ANTIMICROBIAL MOIETIES” (C3 JIAN, INC., priority 2009, published 2011).
Entries after “also recorded” stand apart in the source; their conditions may differ.

Assays:
E. faecalis = assay: Kill or inhibit growth/proliferation; morphology, biofilm and growth disruption (Tables 5, 6); format: cell-based, Enterococcus faecalis; parameters: key: A: Peptide aggregates; B: Less hyphal formation; Clumps; Diffuse clumps and small polyps; F: Diffuse growth; H: Thin; I: Growth inhibition; Microcolony formation; Rippled; Small polyps; Thick; W: Halo formation on top, microlonies on bottom; also: test concentration or dose not given here
C. jejuni = assay: as above; format: cell-based, Campylobacter jejuni; parameters: key: A: Peptide aggregates; B: Less hyphal formation; Clumps; Diffuse clumps and small polyps; F: Diffuse growth; H: Thin; I: Growth inhibition; Microcolony formation; Rippled; Small polyps; Thick; W: Halo formation on top, microlonies on bottom; also: test concentration or dose not given here
E. coli = assay: as above; format: cell-based, Escherichia coli; parameters: key: A: Peptide aggregates; B: Less hyphal formation; Clumps; Diffuse clumps and small polyps; F: Diffuse growth; H: Thin; I: Growth inhibition; Microcolony formation; Rippled; Small polyps; Thick; W: Halo formation on top, microlonies on bottom
S. pneumoniae = assay: as above; format: cell-based, Streptococcus pneumoniae; parameters: key: A: Peptide aggregates; B: Less hyphal formation; Clumps; Diffuse clumps and small polyps; F: Diffuse growth; H: Thin; I: Growth inhibition; Microcolony formation; Rippled; Small polyps; Thick; W: Halo formation on top, microlonies on bottom
microorganisms = assay: Peptides having multiple activities (targeting/binding, antimicrobial, growth or phenotype altering)
Excerpt: In certain embodiments, peptides described herein can have multiple activities. Thus for example, a peptide can have both binding/targeting activity and antimicrobial activity. Such peptides can be used, e.g., in a chimeric construct, for any or all of these properties. Thus, for example, a peptide designated “B” in Table 8 can be used as a targeting peptide. If it is also designated G or M it can also be used for antimicrobial activity.

MRSA = assay: Kill or inhibit growth/proliferation; morphology, biofilm and growth disruption (Tables 5, 6); format: cell-based, Methicillin-resistant Staphylococcus aureus; parameters: key: A: Peptide aggregates; B: Less hyphal formation; Clumps; Diffuse clumps and small polyps; F: Diffuse growth; H: Thin; I: Growth inhibition; Microcolony formation; Rippled; Small polyps; Thick; W: Halo formation on top, microlonies on bottom; also: test concentration or dose not given here
S. epidermidis = assay: as above; format: cell-based, Staphylococcus epidermidis; parameters: key: A: Peptide aggregates; B: Less hyphal formation; Clumps; Diffuse clumps and small polyps; F: Diffuse growth; H: Thin; I: Growth inhibition; Microcolony formation; Rippled; Small polyps; Thick; W: Halo formation on top, microlonies on bottom
[1] = tested on: microorganisms (e.g., bacteria, yeasts, fungi); assay: Targeting peptide binding to target microorganisms (Table 3); conditions: preferably 1x PBS; for Target(s): microorganism(s) the targeting peptide binds, peptide binding conducted in aqueous buffers varied by peptide solubility; for Target(s) (microorganisms bound by the targeting peptide): peptide binding in aqueous buffers varied by peptide solubility
For Organism, effect in this document: test concentration or dose not given here.

PF-418: peptide having multiple activities (FFLVHFYIRKRKGKVSIFLNYF; Peptide with targeting and/or antimicrobial activity)
Organism, effect (E. faecalis): E. faecalis (D)
Organism, effect (C. jejuni): C. jejuni (D)
Organism, effect (E. coli): E. coli (C)
Organism, effect (S. pneumoniae): S. pneumoniae (D)
Activities (microorganisms): G B
Organism, effect (MRSA): MRSA (D)
Organism, effect (S. epidermidis): S. epidermidis (M)

PF-595: peptide having multiple activities (LQNKIYELLYIKERSKLCS; Peptide with targeting and/or antimicrobial activity)
Organism, effect (E. faecalis): E. faecalis (D)
Organism, effect (C. jejuni): C. jejuni (D)
Organism, effect (E. coli): E. coli (C)
Organism, effect (S. pneumoniae): S. pneumoniae (R)
Activities (microorganisms): G B
Organism, effect (MRSA): MRSA (D)
Organism, effect (S. epidermidis): S. epidermidis (C)

PF-393: peptide having multiple activities (chain 1 DLVQSILSEFKKSG; chain 2 DLVQSILSEFKKSG; Peptide with targeting and/or antimicrobial activity)
Organism, effect (E. faecalis): E. faecalis (A)
Organism, effect (C. jejuni): C. jejuni (R)
Organism, effect (S. pneumoniae): S. pneumoniae (R)
Activities (microorganisms): G B
Organism, effect (MRSA): MRSA (C)
Target(s) [1]: S. epidermidis and E. coli and C. albicans and MRSA and S. pneumoniae and C. jejuni
Organism, effect (S. epidermidis): S. epidermidis (R)

PF-576: peptide having multiple activities (chain 1 AYSGELPEPLVRKMSKEQVRSVMGK; chain 2 AYSGELPEPLVRKMSKEQVRSVMGK; Peptide with targeting and/or antimicrobial activity)
Organism, effect (C. jejuni): C. jejuni (C)
Organism, effect (E. coli): E. coli (A)
Organism, effect (S. pneumoniae): S. pneumoniae (C)
Activities (microorganisms): G B
Organism, effect (MRSA): MRSA (R)
Target(s) [1]: M. luteus; also recorded: P. mirabilis; also recorded: E. coli; also recorded: P. aeruginosa; also recorded: C. albicans; also recorded: S. pneumoniae
Organism, effect (S. epidermidis): S. epidermidis (A)

PF-581: peptide having multiple activities (WTARARR; Peptide with targeting and/or antimicrobial activity)
Organism, effect (E. faecalis): E. faecalis (A)
Organism, effect (C. jejuni): C. jejuni (A)
Organism, effect (S. pneumoniae): S. pneumoniae (A)
Activities (microorganisms): G B
Organism, effect (MRSA): MRSA (A)

PF-590: peptide having multiple activities (YYQAKLFPLL; Peptide with targeting and/or antimicrobial activity)
Organism, effect (C. jejuni): C. jejuni (R)
Activities (microorganisms): G B
Target(s) [1]: S. epidermidis; also recorded: M. luteus; also recorded: E. coli; also recorded: E. faecalis; also recorded: C. jeikeium

PF-599: peptide having multiple activities (LFEIFKPKH; Peptide with targeting and/or antimicrobial activity)
Organism, effect (E. faecalis): E. faecalis (A)
Organism, effect (C. jejuni): C. jejuni (R)
Organism, effect (S. pneumoniae): S. pneumoniae (R)
Activities (microorganisms): G B
Organism, effect (MRSA): MRSA (C)
Target(s) (microorganisms bound by the targeting peptide) [1]: S. epidermidis and P. mirabilis and E. coli and C. albicans and MRSA and S. pneumoniae and C. jeikeium
Organism, effect (S. epidermidis): S. epidermidis (M)

PF-392: peptide having multiple activities (chain 1 DPAGCNDIVRKYCK; chain 2 DPAGCNDIVRKYCK; Peptide with targeting and/or antimicrobial activity)
Organism, effect (E. faecalis): E. faecalis (A)
Organism, effect (C. jejuni): C. jejuni (A)
Activities (microorganisms): G B
Organism, effect (MRSA): MRSA (S)
Target(s) [1]: S. epidermidis; also recorded: B. subtilis; also recorded: S. pneumoniae; also recorded: C. jeikeium; also recorded: C. jejuni

PF-609: peptide having multiple activities (TEIKLDNNEYLVLNLDDILGILK; Peptide with targeting and/or antimicrobial activity)
Organism, effect (E. faecalis): E. faecalis (A)
Organism, effect (C. jejuni): C. jejuni (R)
Organism, effect (S. pneumoniae): S. pneumoniae (R)
Activities (microorganisms): G B
Organism, effect (MRSA): MRSA (C)
Target(s) (microorganisms bound by the targeting peptide) [1]: P. mirabilis; also recorded: E. coli; also recorded: S. pneumoniae

PF-470: peptide having multiple activities (chain 1 PYSDSYATRPHWEQHRAR; chain 2 PYSDSYATRPHWEQHRAR; Peptide with targeting and/or antimicrobial activity)
Organism, effect (E. faecalis): E. faecalis (A)
Organism, effect (C. jejuni): C. jejuni (A)
Activities (microorganisms): G B
Target(s) [1]: M. luteus and E. coli and MRSA and E. faecalis and C. jeikeium and C. jejuni

PF-456: peptide having multiple activities (chain 1 TCVKPRTIN; chain 2 TCVKPRTIN; Peptide with targeting and/or antimicrobial activity)
Organism, effect (E. faecalis): E. faecalis (A)
Organism, effect (C. jejuni): C. jejuni (A)
Activities (microorganisms): G B
Target(s) [1]: C. albicans and MRSA and E. faecalis and C. jeikeium and C. jejuni

PF-431: peptide having multiple activities (VAYAAICWW; Peptide with targeting and/or antimicrobial activity)
Organism, effect (E. faecalis): E. faecalis (R)
Organism, effect (C. jejuni): C. jejuni (R)
Organism, effect (S. pneumoniae): S. pneumoniae (R)
Activities (microorganisms): G B
Organism, effect (MRSA): MRSA (C)
Organism, effect (S. epidermidis): S. epidermidis (M)

PF-059 (TITLKAGIERALHEEVPGVIEVEQVF; Peptide with targeting and/or antimicrobial activity)
Organism, effect (C. jejuni): C. jejuni (C)

PF-601: peptide having multiple activities (YRVTVKALE; Peptide with targeting and/or antimicrobial activity)
Organism, effect (E. faecalis): E. faecalis (A)
Organism, effect (C. jejuni): C. jejuni (A)
Activities (microorganisms): G B
Target(s) (microorganisms bound by the targeting peptide) [1]: C. jeikeium

PF-614: peptide having multiple activities (GLDIYA; Peptide with targeting and/or antimicrobial activity)
Organism, effect (E. faecalis): E. faecalis (A)
Organism, effect (C. jejuni): C. jejuni (R)
Organism, effect (S. pneumoniae): S. pneumoniae (R)
Target(s) (microorganisms bound by the targeting peptide) [1]: S. epidermidis; also recorded: E. coli; also recorded: C. jeikeium
Organism, effect (S. epidermidis): S. epidermidis (M)

DLLKSLLGQDGAKNDEIIEFIKIIMEK [PF-591]
Organism, effect (E. faecalis): E. faecalis (A)
Organism, effect (C. jejuni): C. jejuni (C)
Organism, effect (S. pneumoniae): S. pneumoniae (R)

PF-585: peptide having multiple activities (DYNHLLNVVQDWVNTN; Peptide with targeting and/or antimicrobial activity)
Organism, effect (E. faecalis): E. faecalis (A)
Organism, effect (C. jejuni): C. jejuni (R)
Organism, effect (S. pneumoniae): S. pneumoniae (R)
Activities (microorganisms): G B
Organism, effect (MRSA): MRSA (S)
Target(s) [1]: S. epidermidis and E. coli and C. albicans and MRSA and S. pneumoniae and C. jeikeium
Organism, effect (S. epidermidis): S. epidermidis (S)

PF-607: peptide having multiple activities (YIESDPRKFDYIFGAIRDH; Peptide with targeting and/or antimicrobial activity)
Organism, effect (E. faecalis): E. faecalis (A)
Organism, effect (C. jejuni): C. jejuni (R)
Organism, effect (S. pneumoniae): S. pneumoniae (R)
Activities (microorganisms): G B
Organism, effect (MRSA): MRSA (S)
Target(s) (microorganisms bound by the targeting peptide) [1]: S. epidermidis and P. mirabilis and E. coli and MRSA and S. pneumoniae and C. jeikeium
Organism, effect (S. epidermidis): S. epidermidis (M)

B1: PF-389: peptide having multiple activities (peptide)
chain 1: GLQFKEIAEEFHITTTALQQWHKDNGYPIYNKNNRK
chain 2: B1 chain 1
modifications: Peptide with targeting and/or antimicrobial activity
Organism, effect (E. faecalis): E. faecalis (R)
Organism, effect (C. jejuni): C. jejuni (R)
Organism, effect (S. pneumoniae): S. pneumoniae (D)
Activities (microorganisms): G B
Organism, effect (MRSA): MRSA (C)
Target(s) [1]: S. epidermidis and C. albicans and MRSA and S. pneumoniae and E. faecalis and C. jeikeium
Organism, effect (S. epidermidis): S. epidermidis (R)
